Assay results published in US20050095606A1, “Partially double-stranded nucleic acids, methods of making, and use thereof” (priority 2001, published 2005).

Key:
Assay type in all cases: cell-based
Conditions in all cases: 6 hours
[1] = test system: 12 target nucleic acids in MCF-7 cells; experiment: Change in expression level of 12 target nucleic acids across cell treatments (Flow-Thru Chip and TAQMAN)
From the text: (§1) MCF-7 cells are estrogen responsive breast adenocarcinoma cells that have been used previously as a model system for evaluation of breast cancer drugs. Initial studies have examined the effect of an anti-estrogen, tamoxifen, on the estradiol response of MCF-7 cells. Estradiol stimulates cell proliferation through the G1 phase in synchronized cell growth studies. Tamoxifen treatment of cells inhibits the induction of several genes that occur upon estradiol treatment by blocking estrogen receptor cofactors required for transcription. The Flow-Thru Chip™has been used as an analysis platform for a set of genes reported in the literature as differentially regulated in the MCF-7 system under estradiol and tamoxifen treatment. TAQMAN® PCR was performed to measure the changes in expression levels for each of the monitored genes across the treatments.
(§2) The experimental protocols for estradiol and tamoxifen treatment have been described in detail elsewhere (Wosikowski et al., Int. J. Cancer 53:290-297 (1993)). In this study MCF-7 (ATTC, Manassas, Va.) cells were maintained in MEM alpha medium supplemented with 10% heat-inactivated fetal bovine serum, Penicillin-Streptomycin and 10 μg/ml bovine insulin (complete medium) (Life Technologies, Gaithersburg, Md.). […] The purity and integrity of the total RNA was assessed by the 260/280 absorbance and the 28s/18s RNA ratios.
(§3) Analysis of genes under test by the Flow-Thru Chip™ required amplification from the total RNA. […] The appropriate number of cycles for each grouping of target nucleic acids was determined empirically to assure that all targets in the group were in the linear dynamic range of the chip and had not reached primer limitation in the PCR amplification. […]
(§4) The ability to multiplex target nucleic acids under study was confirmed by TAQMAN®, analysis of the singleplex and multiplex amplifications. […] Changes in expression level between samples were determined by comparing the brightness of gene-spots measured for each target nucleic acid relative to a reference target nucleic acid, β-actin. […]

[2] = test system: C-myc; experiment: TAQMAN PCR gene expression analysis, MCF-7 cells
From the text: as §1, with “The Flow-Thru Chip™has been used as an analysis platform for a set of genes reported in the literature as differentially regulated in the MCF-7 system under estradiol and tamoxifen treatment.” left out
The experimental protocols for estradiol and tamoxifen treatment have been described in detail elsewhere (Wosikowski et al., Int. J. Cancer 53:290-297 (1993)). […] The purity and integrity of the total RNA was assessed by the 260/280 absorbance and the 28s/18s RNA ratios.
as §4

[3] = test system: C-myc; experiment: Flow-Thru Chip gene expression analysis after multiplex RT-PCR, MCF-7 cells
From the text: as §1, §2, §3, §4

SMILES | effect on estradiol induction of the set of target nucleic acids ([1]; 1 μM tamoxifen added to 10 nM 17-beta-estradiol) | influence on expression of any of the target nucleic acids ([1]; 1 μM tamoxifen alone) | C-myc fold increase ([2]; 1 μM tamoxifen in conjunction with 10 nM 17-beta-estradiol, TAQMAN (same by both methods)) | influence on C-myc expression ([3]; 1 μM tamoxifen alone, method not stated) | C-myc fold increase ([3]; 1 μM tamoxifen in conjunction with 10 nM 17-beta-estradiol, Flow-Thru Chip (same by both methods)) | effect on expression of the target nucleic acids ([1]; 10 nM 17-beta-estradiol) | C-myc fold up-regulation ([2]; 10 nM 17-beta-estradiol, relative to vehicle control (=1.0), reference β-actin, TAQMAN) [fold] | C-myc fold up-regulation ([3]; 10 nM 17-beta-estradiol, relative to vehicle control (=1.0), reference β-actin, Flow-Thru Chip) [fold]
CC/C(=C(\c1ccccc1)c1ccc(OCCN(C)C)cc1)c1ccccc1 [tamoxifen] | suppresses the induction | little influence | roughly 8 fold | no influence | roughly 8 fold | – | – | –
C[C@]12CC[C@@H]3c4ccc(O)cc4CC[C@H]3[C@@H]1CC[C@@H]2O [estradiol, 17-beta-estradiol] | – | – | – | – | – | induces expression | 27±6 | 23±4
